Measurements reported in US20170216340A1, “A Nucleoside Derivative For Use As A Drug, Particularly For The Treatment Of Chronic Lymphocytic Leukemia” (INSTYTUT BIOLOGII MEDYCZNEJ POLSKIEJ AKADEMII NAUK, priority 2014, published 2017).
“Also recorded” adds a separate entry of the source.

Legend:
[1] = system: PARP-1, Bax, Bcl-2, Mcl-1; experiment: Western blot analysis of apoptosis-related proteins in CLL and PLL cells; type: cell-based, human; conditions: 15 μM; for expression level of Bcl-2 in comparison to vehicle control: PBMC samples from Patient 2, 48 h
Protocol: The expression of apoptosis-related proteins was assessed in CLL and PLL cells exposed to the tested agents. All examined adenosine derivatives triggered proteolysis of PARP-1 full length protein (116 kDa) to its cleavage product (89 kDa), which is a known marker of apoptosis. Moreover, altered expression of pro-apoptotic (Bax) and anti-apoptotic proteins (Mcl-1, Bcl-2) from Bcl-2 family was also observed in purine derivative-treated leukemic cells. However, there were some individual differences between basal levels of these apoptotic regulators in model cells, as well as the changes in their cellular levels after the agent exposure were diverse. For instance, there were no significant alterations in Bax/Bcl-2 ratio in cell samples obtained from exemplary patient 1 exposed to the novel nucleosides.
Control PBMCs (without the agents), as well as the cells samples exposed to DMSO (vehicle control) and the tested agents were lysed (4° C., 1 h) in a buffer containing 10 mM Tris-HCl (pH 7.5), 300 mM NaCl, 1% Triton X-100, 2 mM MgCl2, 0.1 M DTT, and protease inhibitors as described previously (A., Kobylinska, J., Bednarek, J. Z., Blonski, M., Hanausek, Z., Walaszek, H., Piekarski, T., Robak, Z. M., Kilianska. 2006. In vitro sensitivity of B-cell chronic lymphocytic leukemia to cladribine and its combinations with mafosfamide and/or mitoxantrone, Oncol. Rep., 16, 1389-1395). Protein content was estimated according to Lowry method (O. H., Lowry, N. J., Rosebrough, A. L., Farr, R. J., Randall. 1951. Protein measurement with the Folin phenol reagent. J. Biol. Chem., 193, 265-275) and the cell lysates were prepared for subsequent Western blotting analysis. Protein samples (60 μg/lane) were separated by SDS polyacrylamide gel electrophoresis (SDS-PAGE) on 8.0 or 12.5% slab gels and electrotransfered onto Immobilon P (H., Towbin, T., Staechlin, J., Gordon, 1979, Electrophoretic transfer of protein from polyacrylamide gels to nitrocellulose sheets: procedure and some applications. Proc. Natl. Acad. Sci. USA, 76, 4350-4354). Membrane staining with 0.5% Ponceau S solution was done to confirm equal protein loading and completeness of the transfer. The membranes were saturated in 5.0% skim milk in TBS (10 mM Tris-HC1, pH 7.5, 150 mM NaC1) for 1 h at ambient temperature, and then incubated overnight with antibodies specific to Mcl -1 (1:1000), Bcl-2 (1:1000), Bax (1:1000), PARP-1 (1:1000), all from Santa Cruz Biotechnology Inc. Antigen recognition was performed with appropriate secondary antibodies conjugated with horseradish peroxidase. The antigen-antibodies complexes were detected with Novex HRP Chromogenic substrate (TMB) from Invitrogen or, alternatively, by chemiluminescence method (see results in FIG. 3).

caspase 3 = experiment: Caspase-3 activation assay (PE Active Caspase-3 Apoptosis Kit, flow cytometry); type: cell-based, human; parameters: number of caspase-3-positive cells: dose or concentration left out as unconfirmed; conditions: PLL cells; for number of cells with active form of caspase 3: 48 h drug exposure, 15 μM
Protocol: Caspase 3 is a main effector caspase which is involved in apoptosis process realization (Miura M., Zhu H., Otello R., Hartwieg E.A., Yuan J. 1993. Induction of apoptosis in fibroblasts by IL-1 beta-converting enzyme, a mammalian homolog of the C. elegans cell death gene ced-3, Cell, 75, 653-660). […] Our analysis, conducted after 48 h drug exposure, confirmed that in PLL cells a high antileukemic potential of adenosine modified at C-2 position with boron cluster is related to apoptosis induction. The number of cells with active form of the enzyme raised after the exposure to compound 3 from 9.4% and 10.6% in control and vehicle control (DMSO), respectively, to 28.5%. Similar effect (20,1%) was observed after the incubation of PLL cells with cladribine at concentration of 15 μM which recursively exceeds its level in serum of patients during antileukemic therapy. […] Of note, compound 5 affected PLL cells weaker than compound 3 which was confirmed by caspase 3 activation in 16.1% of leukemic cells.
The percent of leukemic PBMCs with active form of caspase-3 was measured cytometrically by PE Active Caspase-3 Apoptosis Kit, BD Pharmingen according to manufacturer's protocol. The analyses were conducted after 48 h incubation with/without (control) the agents or DMSO (vehicle control). BD LSR II flow cytometer was used and the analyses were performed using FACSDiva Version 6.1.2 software (see results in FIG. 2).

PLL cells = experiment: Viability and apoptosis induction in PLL PBMCs (Membrane Permeability/Dead Cell Apoptosis Kit); type: cell-based, human; conditions: 15 μM, 1 case of PLL, very preliminary data
Protocol: The 15 μM concentration of the used agents, as safe for normal PBMCs, was selected for further analyses with regard to their apoptosis-inducing potential. The viability and apoptosis induction were examined in cell samples obtained from peripheral blood of 6 patients with leukemia (5 cases of CLL and 1 case of PLL). […] It is worth noting that the agents differed in their apoptosis inducing potential in PLL cells.
Firstly, it was analyzed by propidium iodide staining. Then, Membrane Permeability/Dead Cell Apoptosis Kit (Molecular Probes, Invitrogen™) was used to examine the contribution of apoptosis to cell death induction after exposure to the used agents. The analyses were performed on BD LSR II flow cytometry using FACSDiva Version 6.1.2 software. Ten thousand events were examined for each analysis. The distinction between living (YO-PRO-negative/propidium iodide-negative), early apoptotic (YO-PRO-positive/propidium iodide-negative) and dead (YO-PRO-positive/propiodium iodide-positive) cells was based on the differences in their permeability for fluorescent dyes. The results are shown as the percent of viable and early apoptotic cells in gated PBM cell population, respectively.
For further analyses the concentration of 15 μM of all tested agents was chosen. […]

CLL cells = experiment: Cytotoxicity in leukemic PBMCs from CLL patients; type: cell-based; conditions: 24 and 48 h
Protocol: (§1) During the first stage, the cytotoxicity analysis of compounds according to the present invention introduced into the culture medium in increasing concentrations (from 0 μM to 60 μM) against leukemic and healthy peripheral blood mononuclear cells (PBMCs). The goal of this stage was to select the optimal concentrations which would be useful for the further comparative analysis of novel compound with conventional chemotherapeutics, i.e. cladribine and fludarabine, in terms of their antileukemic efficacy. The cytotoxicity of compounds was evaluated in PBMCs isolated from the blood of 5 patients with CLL, 1 with PLL and 5 healthy donors after 24 and 48 h. of incubation. Cell survival was evaluated cytometrically using propidium iodide staining using the Membrane Permeability/Dead Cell Apoptosis assay (propidium iodide+YO-PRO). […] FIG. 1a represents the survival of healthy cells treated with compounds according to the present invention at increasing concentrationsand evaluated using the Membrane Permeability/Dead Cell Apoptosis assay.
(§2) PBMC cells were isolated from peripheral blood using centrifugation via a Histopaque gradient according to the manufacturer's instructions. […] The cytotoxicity was assessed cytometrically after 24 and 48 h incubation.
(§3) Firstly, it was analyzed by propidium iodide staining. […]

normal PBMCs = experiment: Cytotoxicity in normal PBMCs (propidium iodide; Membrane Permeability/Dead Cell Apoptosis Kit); type: cell-based, human; conditions: normal PBMCs from healthy donors, 24 and 48 h
Protocol: as §1, §2, §3

Molecule	expression level of Bcl-2 in comparison to vehicle control [1]	number of cells with active form of caspase 3 (caspase 3)	anti-leukemic (apoptosis inducing) potential against PLL cells (PLL cells)	cytotoxicity / anti-leukemic potential against CLL cells (CLL cells)	cytotoxicity against normal PBMCs (normal PBMCs)	Bax expression level ([1]; cells from patient 1, 48 h)	Bcl-2 protein level ([1]; cells from patient 1, 48 h)	number of caspase-3-positive cells (caspase 3; 48 h) [%]
2-ethynyl-(1,12-dicarba-closo-dodecaboran-2-yl)adenosine [compound 3]	clear decrease	28.5%	very potent against PLL cells; also recorded: even higher than that of cladribine and fludarabine	smaller anti-leukemic potential against CLL cells than compound 5	less cytotoxic against normal PBMCs; also recorded: lower than fludarabine	–	–	–
8-ethynyl-(1,12-dicarba-closo-dodecaboran-2-yl-2′-deoxyadenosine [compound 5]	clear decrease	16.1%	–	more cytotoxic in comparison to compound 3	–	–	–	–
Nc1nc(Cl)nc2c1ncn2[C@H]1C[C@H](O)[C@@H](CO)O1 [cladribine, reference compound]	–	20,1%	–	–	–	essential increase	diminution	11.8
Nc1nc(F)nc2c1ncn2[C@@H]1O[C@H](CO)[C@@H](O)[C@@H]1O [fludarabine]	–	11.8%	–	–	–	–	–	–
